Results reported in patent US9988348B1, “Synthesis and antimicrobial use of a trithiocarbonate derivative” (KING SAUD UNIVERSITY, priority 2017, dated 2018).
Marks after values point to notes of the source that are not given here.

What was measured:
[1] = test system: MCF-7 human breast cancer cell lines; experiment: in vitro anti-cancer test; assay type: cell-based; conditions: water soluble form, 4 to 0.008 mg/mL
Procedure: Biological activity of compound 4 (water soluble form) as anticancer in human breast cancer was evaluated according to (Kumar et al. 2014). Roswell Park Memorial Institute (RPMI)-1640 medium (Sigma, USA) were prepared according to manufacturer's guidelines and supplemented fetal bovine serum (10%). To avoid a microbial contamination, a streptomycin and penicillin were added to RPMI-1640. Several concentrations ranging from 4 to 0.008 mg/mL of compound 4 were tested.

[2] = biological effects of compound 4 alone in mice (not infected);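 for daily body weight: compound given twice daily to the uninfected group for 2 weeks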; assay type: in vivo; set-up: Total Protein Mean ± SE: unit not given here; conditions: for daily body weight / % change in daily body weight / Food consumption / Mortality / Water consumption: i.v. 12 mg/kg then 6 mg/ml
Procedure: The experiment was performed in Experimental Animal Care Center (EACC), College of Pharmacy, King Saud University, Riyadh. Fifty Albino male mice, weighing nearly 30±2 gram were used. The mice were arranged in five groups, each including ten mice caged together, given water, and feed ad libitum. […] The group treated with standard drug (fluconazole) was infected intravenously with 0.2 ml of C. albicans suspension (10^6 CFU/mouse) and treated (orally) by 12 mg/kg of fluconazole (loading dose) on the first day followed by 6 mg/ml for 2 weeks.
The biological parameters included daily body weight (gm), mortality (%), food consumption (g/day/mouse), water consumption (ml/day/mouse), serum glutamic oxaloacetic transaminase [SGOT(AST) (U/L)], serum glutamic-pyruvic transaminase [SGPT(ALT)(U/L)], alkaline phosphatase (U/L), gamma-glutamyl transferase (GGT) (U/L), bilirubin (mg/dl)], cholesterol (mg/dl), triglycerides (mg/dl), high-density lipoprotein (HDL) (mg/dl), very-low-density lipoprotein (VLDL) (mg/dl), low-density lipoprotein (LDL) (mg/dl), lactate dehydrogenase (LDH) (U/L), glucose (mg/dl), total protein (mg/dl), malondialdehyde (MDA) (nmol/g), nonprotein sulfyhydryl (NP-SH) (nmol/g). […] SGOT (AST), SGPT (ALT), ALP, GGT, bilirubin LDH and total protein were estimated using Reflotron Plus Analyzer and Roche kits (Roche Diagnostics GmbH, Mannheim Germany) and United diagnostic kits assay. Hematological tests were performed by Mindray BC-2800VET auto Hematology Analyzer.

[3] = test system: Neisseria meningitides ATCC 1302; experiment: disk diffusion assay, inhibition zone; assay type: cell-based; conditions: N. meningitides
[4] = blood, uninfected mice, i.v. 12 mg/kg then 6 mg/ml for 2 weeks
[5] = liver tissue, uninfected mice, i.v. 12 mg/kg then 6 mg/ml for 2 weeks
[6] = serum, uninfected mice, i.v. 12 mg/kg then 6 mg/ml for 2 weeks

CCOC(=O)CSC(=S)SCC(=O)OCC [Compound 4, diethyl 2,2′-(thiocarbonylbis(sulfanediyl))diacetate]
biological activity as anticancer [1]: no biological activity
Eosinophils Mean ± SE [2, 4]: 2.38 ± 0.09%
HCT Mean ± SE [2, 4]: 45.9 ± 1.51^a
HGB Mean ± SE [2, 4]: 12.4 ± 0.18^a g/dL
Lymphocytes Mean ± SE [2, 4]: 4.8 ± 0.09%
MCH Mean ± SE [2, 4]: 39.0 ± 1.0 pg
MCHC Mean ± SE [2, 4]: 32.6 ± 0.9 g/dL
MCV Mean ± SE [2, 4]: 87.31 ± 1.74 fL
Monocytes Mean ± SE [2, 4]: 1.15 ± 0.01%
Neutrophils Mean ± SE [2, 4]: 33.3 ± 1.1%
PLT Mean ± SE [2, 4]: 670.7 ± 15.3 10^3/mm^3
RBC Mean ± SE [2, 4]: 9.26 ± 0.1 10^6/mm^3
WBC Mean ± SE [2, 4]: 8795 ± 45.9 Cell/mm^3
MDA [2, 5]: 0.94 ± 0.03***^a nmol/g
NP-SH [2, 5]: 6.88 ± 0.22***^a nmol/g
Total Protein [2, 5]: 129.04 ± 2.80**^a g/l
side effects on food and water consumption comparing with control group ([2]; mice): no negative side effects
Alkaline phosphatase Mean ± SE ([2]; serum, uninfected mice, 12 mg/kg then 6 mg/ml for 2 weeks): 286.62 ± 4.67^a U/L
Bilirubin Mean ± SE [2, 6]: 0.57 ± 0.017^a mg/dl
Cholesterol Mean ± SE [2, 6]: 78.68 ± 3.2 mg/dL
GGT Mean ± SE [2, 6]: 4.40 ± 0.13^a U/L
Glucose level Mean ± SE [2, 6]: 96.38 ± 3.62**^a mg/dl
HDL Mean ± SE [2, 6]: 41.6 ± 2.1^a mg/dl
LDH Mean ± SE [2, 6]: 162.50 ± 1.84^a U/L
LDL Mean ± SE [2, 6]: 23.3 ± 3.0 mg/dL
SGOT(AST) Mean ± SE [2, 6]: 89.07 ± 3.82 U/L
SGPT(ALT) Mean ± SE [2, 6]: 28.67 ± 1.15^a U/L
Total Protein Mean ± SE [2, 6]: 7.66 ± 0.18
Triglycerides Mean ± SE [2, 6]: 68.5 ± 1.6 mg/dL
VLDL Mean ± SE [2, 6]: 13.7 ± 0.3 mg/dL
mortality in the group treated only with the compound, in words ([2]; uninfected mice): close to the control group
daily body weight ([2]; uninfected mice, day 0): 20.20 ± 0.38 gm
% change in daily body weight ([2]; uninfected mice, day 1): 0.49%
Food consumption ([2]; uninfected mice, day 1): 4.2 g/day/mice
Mortality ([2]; uninfected mice, day 1): 0%
Water consumption ([2]; uninfected mice, day 1): 5.2 g/day/mice
daily body weight ([2]; uninfected mice, day 1): 20.30 ± 0.36 gm
% change in daily body weight ([2]; uninfected mice, day 2): 9.40%
Food consumption ([2]; uninfected mice, day 2): 4.5 g/day/mice
Mortality ([2]; uninfected mice, day 2): 0%
Water consumption ([2]; uninfected mice, day 2): 5.2 g/day/mice
daily body weight ([2]; uninfected mice, day 2): 22.10 ± 0.23 gm
% change in daily body weight ([2]; uninfected mice, day 3): 16.83%
Food consumption ([2]; uninfected mice, day 3): 4.4 g/day/mice
Mortality ([2]; uninfected mice, day 3): 0%
Water consumption ([2]; uninfected mice, day 3): 5.4 g/day/mice
daily body weight ([2]; uninfected mice, day 3): 23.60 ± 0.33 gm
% change in daily body weight ([2]; uninfected mice, day 4): 19.80%
Food consumption ([2]; uninfected mice, day 4): 4.5 g/day/mice
Mortality ([2]; uninfected mice, day 4): 0%
Water consumption ([2]; uninfected mice, day 4): 5.5 g/day/mice
daily body weight ([2]; uninfected mice, day 4): 24.20 ± 0.20 gm
% change in daily body weight ([2]; uninfected mice, day 5): 23.26%
Food consumption ([2]; uninfected mice, day 5): 4.6 g/day/mice
Mortality ([2]; uninfected mice, day 5): 0%
Water consumption ([2]; uninfected mice, day 5): 5.5 g/day/mice
daily body weight ([2]; uninfected mice, day 5): 24.90 ± 0.23 gm
% change in daily body weight ([2]; uninfected mice, day 6): 27.22%
Food consumption ([2]; uninfected mice, day 6): 4.6 g/day/mice
Mortality ([2]; uninfected mice, day 6): 0%
Water consumption ([2]; uninfected mice, day 6): 5.7 g/day/mice
daily body weight ([2]; uninfected mice, day 6): 25.70 ± 0.21 gm
% change in daily body weight ([2]; uninfected mice, day 7): 29.70%
Food consumption ([2]; uninfected mice, day 7): 4.8 g/day/mice
Mortality ([2]; uninfected mice, day 7): 0%
Water consumption ([2]; uninfected mice, day 7): 5.8 g/day/mice
daily body weight ([2]; uninfected mice, day 7): 26.20 ± 0.24 gm
% change in daily body weight ([2]; uninfected mice, day 8): 32.17%
Food consumption ([2]; uninfected mice, day 8): 4.9 g/day/mice
Mortality ([2]; uninfected mice, day 8): 0%
Water consumption ([2]; uninfected mice, day 8): 5.8 g/day/mice
daily body weight ([2]; uninfected mice, day 8): 26.70 ± 0.26 gm
% change in daily body weight ([2]; uninfected mice, day 9): 32.67%
Food consumption ([2]; uninfected mice, day 9): 4.9 g/day/mice
Mortality ([2]; uninfected mice, day 9): 0%
Water consumption ([2]; uninfected mice, day 9): 5.9 g/day/mice
daily body weight ([2]; uninfected mice, day 9): 26.80 ± 0.29 gm
% change in daily body weight ([2]; uninfected mice, day 10): 33.66%
Food consumption ([2]; uninfected mice, day 10): 5.1 g/day/mice
Mortality ([2]; uninfected mice, day 10): 0%
Water consumption ([2]; uninfected mice, day 10): 5.9 g/day/mice
daily body weight ([2]; uninfected mice, day 10): 27.00 ± 0.27 gm
% change in daily body weight ([2]; uninfected mice, day 11): 35.64%
Food consumption ([2]; uninfected mice, day 11): 5.2 g/day/mice
Mortality ([2]; uninfected mice, day 11): 0%
Water consumption ([2]; uninfected mice, day 11): 6.0 g/day/mice
daily body weight ([2]; uninfected mice, day 11): 27.40 ± 0.35 gm
% change in daily body weight ([2]; uninfected mice, day 12): 36.96%
Food consumption ([2]; uninfected mice, day 12): 6.0 g/day/mice
Mortality ([2]; uninfected mice, day 12): 0%
Water consumption ([2]; uninfected mice, day 12): 6.11 g/day/mice
daily body weight ([2]; uninfected mice, day 12): 27.66 ± 0.28 gm
% change in daily body weight ([2]; uninfected mice, day 13): 35.51%
Food consumption ([2]; uninfected mice, day 13): 6.0 g/day/mice
Mortality ([2]; uninfected mice, day 13): 10%
Water consumption ([2]; uninfected mice, day 13): 6.2 g/day/mice
daily body weight ([2]; uninfected mice, day 13): 27.77 ± 0.27 gm
% change in daily body weight ([2]; uninfected mice, day 14): 38.61%
Food consumption ([2]; uninfected mice, day 14): 6.1 g/day/mice
Mortality ([2]; uninfected mice, day 14): 10%
Water consumption ([2]; uninfected mice, day 14): 6.2 g/day/mice
daily body weight ([2]; uninfected mice, day 14): 28.00 ± 0.37 gm
% change in daily body weight ([2]; uninfected mice, day 15): 41.70%
Food consumption ([2]; uninfected mice, day 15): 6.1 g/day/mice
Mortality ([2]; uninfected mice, day 15): 10%
Water consumption ([2]; uninfected mice, day 15): 6.3 g/day/mice
daily body weight ([2]; uninfected mice, day 15): 28.62 ± 0.41 gm
biological activity, in words [3]: very good
Inhibition zone diameter ([3]; 4 mg/disk, soluble water compound 4): 22.6 ± 0.5 C mm
